# Laboratory results reported in patent US10028949B2, “Parenteral formulations of lipophilic pharmaceutical agents and methods for preparing and using the same” (priority 2011, dated 2018).
# Read-outs that look alike come from different tables or passages of the source.
# Experiments:
# [1] = Stability of Bu formulations by HPLC; assay type: physicochemical; conditions: for stability maintained: stock formulation diluted with D5W
# Procedure: It was initially important to describe short-term stability of the Bu/acetone/PEG mixture. This was necessary to determine if the vacuum-extraction step could be utilized without undue chemical degradation of Bu. The Bu (5 mg/mL) in acetone/PEG400 (1:2, v/v) was incubated at room temperature and quantified by HPLC after 0, 1, 2, 4, 8 and 24 hours. Second, the inventors confirmed that Bu would be stable in the VE-acetone/PEG/Bu complex. Therefore, to determine long-term stability Bu was dissolved in acetone (10 mg/mL), then mixed with PEG 400 (ratio 1:2, v/v). The acetone was extracted from the mixture under vacuum at room temperature (RT). The VE-acetone/PEG400/Bu was stored either at room temperature or 37° C. for 2 months in sealed tubes. Finally, Bu (1 mg/mL) in the final use formulation of VE-acetone/PEG 400/D5W (0:40:60, v/v/v), was incubated at room temperature and analyzed by HPLC at 0, 1, 2, 4, 8 and 15 hours to determine short-term stability. Triplicate samples were quantitatively analyzed with HPLC at all time points after appropriate dilution of the samples in the stability studies.
# Bu was dissolved at a concentration of about 10 mg/mL in acetone only or in VE-acetone/PEG (prototype stock solvent vehicle) and incubated at RT (22° C.) and at 37° C. The resulting Bu concentration was measured by HPLC in samples taken immediately after solubilization, then every few hours for 8 hours, and then at gradually increasing time intervals for up to 60 days.
# [2] = system: human myeloid leukemia cell lines KBM-3 and KBM-7/B5, as well as the OCI-AML3; test: In vitro cytotoxicity of busulfan, MTT assay; assay type: cell-based; conditions: compared with Bu dissolved in DMSO (positive control)
# Procedure: The cytotoxic potential of the selected preferred solvent systems with and without Bu was determined against the human myeloid leukemia cell lines KBM-3 and KBM-7/B5, as well as the OCI-AML3 (Andersson et al., 1993; Andersson et al., 1987; Andersson et al., 1995; Wang et al., 1991). Briefly, continuously growing cells were exposed to drug, and then pelleted, after which they were resuspended in complete cell culture medium at 2×10^5/mL and aliquoted (20,000/well) in 96-well plates, incubated at 37° C. for 4 days, and analyzed by the MTT assay (Mosmann, 1983). Graphical analyses including calculations of IC50 and charting of survival were done using Prism 4 (GraphPad Software, Inc., San Diego, Calif.). Cells exposed in parallel to solvent system and medium alone served as negative controls, and cells exposed to […] (final concentration 0.08% v/v) served as a positive control for a comparison of cytotoxic action with the DMA-Bu formulation.
# [3] = Parenteral busulfan pharmacology in mice
# Procedure: Swiss Webster mice with a body weight of 25-30 g were used for the in vivo pharmacology experiments (Harlan-Sprague-Dawley, Houston, Tex.). The animals were allowed a minimum of 3-4 days after arrival to acclimatize to the new environment and allowed free access to commercial feed and hyperchlorinated, reverse-osmosis purified water prior to and during the experimentation period. The animal-housing facilities meet the requirements of the USDA, NIH, and DHHS.
# Busulfan at a dose of 10 mg/kg BW was used as an appropriate and representative single dose that could be administered as a slow IV bolus injection over 3-4 min.
# The Bu was formulated in the prototype VE-acetone/PEG vehicle to a stock concentration of about 10 mg/mL and then diluted with D5W to 1 mg/mL and 2 mg/mL (in repeated experiments) so the total dose of 10 mg/kg could be injected in a volume of about 250 μL and 125 μL, respectively, in a tail vein. The Bu concentrations of the final use-formulation were confirmed by HPLC prior to administration.
# No anticonvulsant premedication was used in the animals in these experiments to avoid the possible induction of microsomal liver enzymes that could modify Bu metabolism. For the same reason the animals were unanesthetized during the drug injection, only physically restrained.
# Blood samples (0.5-1.0 mL) were procured through cardiac puncture under Isoflurane-induced general anesthesia. These samples were drawn in preheparinized tubes at selected time points prior to the drug infusion (“blank”), and from 5 min to 4 hours after drug injection for determination of Bu concentrations. The blood was centrifuged at 1,000×g for 10 min, and plasma was removed and stored at −80° C. until extracted and assayed by HPLC.
# physchem = conditions: thermodynamic from solid
# [4] = in vivo; cited from earlier work
# [5] = for Solubility / Solubility (mg/mL): room temperature; for Solubility (mg/mL): listed as Bu
structure (smiles),measurement,setting,value
"CS(=O)(=O)OCCCCOS(C)(=O)=O [Busulfan, 1,4-butanediol dimethanesulfonate]","time stable in solution, stock formulation","[1]; Bu/VE-acetone/PEG stock formulation, approximately 5 mg/mL, RT",≥ 60 days
same,"time stable, final use-formulation","[1]; VE-acetone/PEG diluted with aqueous diluent to 1 mg/mL, RT",at least 15 hours
same,stability in DMSO,[1]; in DMSO,rapidly started degrading
same,time stably dissolved,"[1]; in acetone and DMA, RT",at least 7 days
same,"time stable, final clinical use-formulation","[1]; reconstituted with D5W, 0.5 to 2 mg/mL, RT",at least 15 hours
same,stability maintained,[1]; up to 15 hours at 1 mg/ml,~100%
same,stability maintained,[1]; up to 25 hours at 0.5 mg/ml,~100%
same,cytotoxic activity,[2],retained full cytotoxic activity
same,half-life,"[3]; Swiss Webster, mouse, plasma, iv, 10 mg/kg",2.5 to 3.5 h
same,tolerability of injections,"[3]; mice, 10 mg/kg IV, acute 4-hour observation period",well tolerated
same,hemolysis in vivo (urine samples),"[3]; mice, 10 mg/kg, urine samples up to 4 hours",no sign of hemolysis
same,Bu plasma concentrations,"[3]; mice, IV 10 mg/kg BW",for several hours remained in the cytotoxic range
same,solubility at 60 minutes,"physchem; aqueous buffer, Solubility (mg/mL), Solvent: HCl 6 N, room temperature",0.7 mg/mL
same,solubility at 60 minutes,"physchem; aqueous with cosolvent or surfactant or cyclodextrin, Solubility (mg/mL), Solvent: PEG:water 1:1, room temperature",0.25 mg/mL
same,solubility at 60 minutes,"physchem; aqueous with cosolvent or surfactant or cyclodextrin, Solubility (mg/mL), Solvent: PEG:water 1:2, room temperature",0.19 mg/mL
same,Solubility,physchem; organic solvent or mixture,16.4 mg/mL
same,solubility at 60 minutes,physchem; organic solvent or mixture,~16 mg/mL
same,solubility at 60 minutes,"physchem; organic solvent or mixture, Solubility (mg/mL), Solvent: Acetic acid, room temperature",3.8 mg/mL
same,solubility at 60 minutes,"physchem; organic solvent or mixture, Solubility (mg/mL), Solvent: Ethanol, room temperature",0.3 mg/mL
same,solubility at 60 minutes,"physchem; organic solvent or mixture, Solubility (mg/mL), Solvent: PEG (−400), room temperature",0.2 mg/mL
same,solubility at 60 minutes,"physchem; organic solvent or mixture, Solubility (mg/mL), Solvent: Propylene glycol, room temperature",0.2 mg/mL
same,terminal half-life in blood,[4],2 to 4 h
same,Solubility,[5]; Solvent: DMA,49.2 mg/mL
same,Solubility (mg/mL),[5]; Solvent: DMA,more than 15 mg/mL
same,Solubility,[5]; Solvent: DMSO,77.9 mg/mL
same,Solubility (mg/mL),[5]; Solvent: DMSO,more than 15 mg/mL
same,concentration of Bu stably bound in PEG alone,[5]; after mixing with PEG and extraction of the acetone,5000 to 10000 µg/mL
